Assay results reported in patent publication US8536332B2, “Modulating signal transduction pathways with substituted pyridol [2,3-b] pyrazines” (Aeterna Zentaris GmbH, priority 2007, dated 2013).

| melting point | Structure (SMILES) |
| --- | --- |
| 212 to 214 °C | COc1cc(-c2ccc3ncc(NC(=O)NC(C)C)nc3n2)ccc1O [Compound 19, 1-[6-(4-Hydroxy-3-methoxy-phenyl)-pyrido[2,3-b]pyrazin-3-yl]-3-isopropyl-urea] |
| 280 °C | CCNC(=O)Nc1ccc2ncc(-c3ccc(-c4ccccc4)cc3)nc2n1 [Compound 123, 1-(3-Biphenyl-4-yl-pyrido[2,3-b]pyrazin-6-yl)-3-ethyl-urea] |
| 272 °C | CCNC(=O)Nc1cnc2ccc(Nc3cc(Cl)c(O)c(Cl)c3)nc2n1 [Compound 15, 1-[6-(3,5-Dichloro-4-hydroxy-phenylamino)-pyrido[2,3-b]pyrazin-3-yl]-3-ethyl-urea] |
| > 310 °C | CCNC(=O)Nc1cnc2ccc(-c3ccc(N)c(OC)c3)nc2n1 [Compound 2, 1-[6-(4-Amino-3-methoxy-phenyl)-pyrido[2,3-b]pyrazin-3-yl]-3-ethyl-urea] |
| 289 °C | CCNC(=S)Nc1ccc2ncc(Nc3ccc4ccccc4c3)nc2n1 [Compound 168, 1-Ethyl-3-[3-(naphthalen-2-ylamino)-pyrido[2,3-b]pyrazin-6-yl]-thiourea] |
| 248 °C | COc1cc(Nc2cnc3ccc(NC(=S)NC4CCCCC4)nc3n2)cc(OC)c1OC [Compound 690, 1-Cyclohexyl-3-[3-(3,4,5-trimethoxy-phenylamino)-pyrido[2,3-b]pyrazin-6-yl]-thiourea] |
| 229 to 231 °C | CCNC(=O)Nc1ccc2ncc(Nc3ccccc3)nc2n1 [Compound 64, 1-Ethyl-3-(3-phenylamino-pyrido-[2,3-b]pyrazin-6-yl)-urea] |
| 218 to 220 °C | CCNC(=O)Nc1ccc2ncc(-c3ccccc3C)nc2n1 [Compound 105, 1-Ethyl-3-(3-o-tolyl-pyrido[2,3-b]pyrazin-6-yl)-urea] |
| 265 to 270 °C | CCNC(=O)Nc1cnc2ccc(Nc3cnc4ccccc4c3)nc2n1 [Compound 32, 1-Ethyl-3-[6-(quinolin-3-ylamino)-pyrido[2,3-b]pyrazin-3-yl]-urea] |
| 253.3 to 256.2 °C | CCNC(=O)Nc1ccc2ncc(-c3ccc(C)c([N+](=O)[O-])c3)nc2n1 [Compound 85, 1-Ethyl-3-[3-(4-methyl-3-nitro-phenyl)-pyrido[2,3-b]pyrazin-6-yl]-urea] |
| 294 °C | CCNC(=S)Nc1ccc2ncc(Nc3ccc(-n4cncn4)cc3)nc2n1 [Compound 164, 1-Ethyl-3-[3-(4-[1,2,4]triazol-1-yl-phenylamino)-pyrido[2,3-b]pyrazin-6-yl]-thiourea] |
| 254 to 257 °C | COc1ccc(-c2ccc3ncc(NC(=O)NCCc4ccccc4)nc3n2)cc1OC [Compound 577, 1-[6-(3,4-Dimethoxy-phenyl)-pyrido[2,3-b]pyrazin-3-yl]-3-phenethyl-urea] |
| 195 °C | CCNC(=S)Nc1cnc2ccc(Nc3ccc(C)cc3)nc2n1 [Compound 25, 1-Ethyl-3-(6-p-tolylamino-pyrido[2,3-b]pyrazin-3-yl)-thiourea] |
| 247 °C | COc1cc(Nc2cnc3ccc(NC(=S)Nc4c(C)noc4C)nc3n2)cc(OC)c1OC [Compound 695, 1-(3,5-Dimethyl-isoxazol-4-yl)-3-[3-(3,4,5-trimethoxy-phenylamino)-pyrido[2,3-b]pyrazin-6-yl]-thiourea] |
| 248 °C | COc1cc(Nc2cnc3ccc(NC(=S)NC4CC4)nc3n2)cc(OC)c1OC [Compound 707, 1-Cyclopropyl-3-[3-(3,4,5-trimethoxy-phenylamino)-pyrido[2,3-b]pyrazin-6-yl]-thiourea] |
| > 300 °C | CCNC(=O)Nc1cnc2ccc(-c3cc(Cl)c(O)c(Cl)c3)nc2n1 [Compound 9, 1-[6-(3,5-Dichloro-4-hydroxy-phenyl)-pyrido[2,3-b]pyrazin-3-yl]-3-ethyl-urea] |

| melting point | Structure (SMILES) |
| --- | --- |
| 253 to 258 °C | CCNC(=O)Nc1ccc2ncc(-c3cc(F)ccc3OC)nc2n1 [Compound 93, 1-Ethyl-3-[3-(5-fluoro-2-methoxy-phenyl)-pyrido[2,3-b]pyrazin-6-yl]-urea] |
| 228 °C | COc1cc(Nc2cnc3ccc(NC(=S)NCc4ccco4)nc3n2)cc(OC)c1OC [Compound 708, 1-Furan-2-ylmethyl-3-[3-(3,4,5-trimethoxy-phenylamino)-pyrido[2,3-b]pyrazin-6-yl]-thiourea] |
| 273 to 275 °C | Cc1cc(-c2ccc3ncc(NC(=O)Nc4ccc(N(C)C)cc4)nc3n2)cc(C)c1O [Compound 583] |
| 232 to 236 °C | COc1cc(-c2ccc3ncc(NC(=O)NC(C)(C)CC(C)(C)C)nc3n2)ccc1O [Compound 613, 1-[6-(4-Hydroxy-3-methoxy-phenyl)-pyrido[2,3-b]pyrazin-3-yl]-3-(1,1,3,3-tetramethyl-butyl)-urea] |
| 240 to 244 °C | CCNC(=O)Nc1ccc2ncc(-c3cccc(N(C)C)c3)nc2n1 [Compound 144, 1-[3-(3-Dimethylamino-phenyl)-pyrido[2,3-b]pyrazin-6-yl]-3-ethyl-urea] |
| 201 to 203 °C | CCNC(=O)Nc1cnc2ccc(NCC3CC3)nc2n1 [Compound 231, 1-[6-(Cyclopropylmethyl-amino)-pyrido[2,3-b]pyrazin-3-yl]-3-ethyl-urea] |
| 246 °C | CCNC(=S)Nc1ccc2ncc(-c3ccc(C)cc3)nc2n1 [Compound 124, 1-Ethyl-3-(3-p-tolyl-pyrido[2,3-b]pyrazin-6-yl)-thiourea] |
| 225 °C | CCNC(=O)Nc1cnc2ccc(-c3ccc(C(=O)O)c(O)c3)nc2n1 [Compound 644] |
| 246 to 249 °C | CCNC(=O)Nc1ccc2ncc(-c3ccc(OS(C)(=O)=O)c(OC)c3)nc2n1 [Compound 43, Methanesulfonic acid 4-[6-(3-ethyl-ureido)-pyrido[2,3-b]pyrazin-3-yl]-2-methoxy-phenyl ester] |
| 232 to 234 °C | COc1cc(-c2ccc3ncc(NC(=O)NC4CCCCCCC4)nc3n2)ccc1O [Compound 604, 1-Cyclooctyl-3-[6-(4-hydroxy-3-methoxy-phenyl)-pyrido[2,3-b]pyrazin-3-yl]-urea] |
| 242 to 244 °C | CNC(=O)Nc1cnc2ccc(-c3ccc(O)c(OC)c3)nc2n1 [Compound 172, 1-[6-(4-Hydroxy-3-methoxy-phenyl)-pyrido[2,3-b]pyrazin-3-yl]-3-methyl-urea] |
| 215 °C | CCNC(=O)Nc1ccc2ncc(Nc3cccc(N(C)C)c3)nc2n1 [Compound 374, 1-[3-(3-Dimethylamino-phenylamino)-pyrido[2,3-b]pyrazin-6-yl]-3-ethyl-urea] |
| 232 °C | CCCOc1c(C)cc(-c2ccc3ncc(NC(=O)NCC)nc3n2)cc1C [Compound 598, 1-[6-(3,5-Dimethyl-4-propoxy-phenyl)-pyrido[2,3-b]pyrazin-3-yl]-3-ethyl-urea] |
| 276 to 279 °C | CC(=O)NCC(=O)Nc1ccc2ncc(Nc3ccc(C)cc3)nc2n1 [Compound 66, 2-Acetylamino-N-(3-p-tolylamino-pyrido [2,3-b]pyrazin-6-yl)-acetamide] |
| 258 to 259 °C | CCNC(=O)Nc1ccc2ncc(-c3cc(Cl)cc(C)c3F)nc2n1 [Compound 96, 1-[3-(5-Chloro-2-fluoro-3-methyl-phenyl)-pyrido[2,3-b]pyrazin-6-yl]-3-ethyl-urea] |
| 277 to 280 °C | CCNC(=O)Nc1cnc2ccc(Nc3ccc(O)c(Cl)c3)nc2n1 [Compound 31, 1-[6-(3-Chloro-4-hydroxy-phenylamino)-pyrido[2,3-b]pyrazin-3-yl]-3-ethyl-urea] |
